Where two headings read alike, the source gives them in different places.
Assays:
Format in all cases: biochemical
[1] = target: T1, ROCK1 (Homo sapiens, UniProt Q13464); test: Rho kinase inhibition assay (IMAP fluorescence polarization), ROCK1;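 note: kinase reaction run 60 min at room temperature, then phosphorylated substrate captured on IMAP beads for 30 min, with fluorescence polarization read in mP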
T1 construct: purchased Upstate/Chemicon 14-601
Experimental: (§1) Following the pre-incubation, 10 μM ATP was added to initiate the reaction. After 60 minutes at room temperature, Molecular Devices IMAP™ binding solution was added to bind phosphorylated substrate. After 30 minutes of incubation in the presence of the IMAP™ beads, the fluorescence polarization was read and the ratio was reported as mP. IC50 values for compounds and EC50 values for ATP were calculated using the Prism software from Graphpad.

[2] = target: T2, p70S6K human enzyme (Homo sapiens, UniProt P23443, T412E); test: p70S6K inhibition assay (IMAP FP); conditions: 30 μM ATP; Ki=IC50/(1+([ATP Challenge]/EC50 ATP)); read-out: p70S6K Ki, Avg;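 note: kinase reaction run at room temperature, phosphorylated substrate captured on IMAP beads and read as fluorescence polarization in mP, IC50 then converted to Ki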
T2 construct: purchased Upstate Chemicon 14-486

[3] = target: T3, Akt3 human enzyme (Homo sapiens, UniProt Q9Y243); test: Akt3 inhibition assay (IMAP FP); conditions: 30 μM ATP; Ki=IC50/(1+([ATP Challenge]/EC50 ATP)); read-out: Akt3 Ki, Avg;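 note: kinase reaction run 60 min at room temperature after 30 µM ATP start, phosphorylated substrate captured on IMAP beads and read as fluorescence polarization (mP)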
T3 construct: purchased Upstate Chemicon 14-502

[4] = target: T4, ROCK2 (Homo sapiens, UniProt O75116); test: Rho kinase inhibition assay (IMAP fluorescence polarization), ROCK2;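 note: kinase reaction started with 10 µM ATP and run 60 min at room temperature, then phosphorylated substrate captured on IMAP beads for 30 min and fluorescence polarization read in mP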
T4 construct: purchased Upstate/Chemicon 14-451
Experimental: as §1

[5] = 10 μM ATP, read-out: ROCK2 Ki, Avg

T4 sequence (O75116 11-552 limits assumed): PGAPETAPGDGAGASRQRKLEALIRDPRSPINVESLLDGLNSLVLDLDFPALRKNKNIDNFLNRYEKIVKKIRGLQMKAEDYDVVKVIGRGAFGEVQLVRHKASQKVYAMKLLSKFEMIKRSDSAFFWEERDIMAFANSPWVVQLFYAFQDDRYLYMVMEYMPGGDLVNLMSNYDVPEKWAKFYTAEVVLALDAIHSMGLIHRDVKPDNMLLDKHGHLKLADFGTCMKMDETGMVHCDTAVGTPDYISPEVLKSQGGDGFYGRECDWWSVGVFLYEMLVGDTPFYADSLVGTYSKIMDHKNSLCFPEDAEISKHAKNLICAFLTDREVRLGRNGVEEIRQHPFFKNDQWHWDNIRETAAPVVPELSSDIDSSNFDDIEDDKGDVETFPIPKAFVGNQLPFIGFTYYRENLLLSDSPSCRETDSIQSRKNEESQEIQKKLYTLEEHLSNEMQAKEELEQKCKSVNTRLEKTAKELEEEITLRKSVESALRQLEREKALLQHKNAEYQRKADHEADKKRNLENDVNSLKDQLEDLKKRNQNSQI
T3 sequence (Q9Y243 whole entry): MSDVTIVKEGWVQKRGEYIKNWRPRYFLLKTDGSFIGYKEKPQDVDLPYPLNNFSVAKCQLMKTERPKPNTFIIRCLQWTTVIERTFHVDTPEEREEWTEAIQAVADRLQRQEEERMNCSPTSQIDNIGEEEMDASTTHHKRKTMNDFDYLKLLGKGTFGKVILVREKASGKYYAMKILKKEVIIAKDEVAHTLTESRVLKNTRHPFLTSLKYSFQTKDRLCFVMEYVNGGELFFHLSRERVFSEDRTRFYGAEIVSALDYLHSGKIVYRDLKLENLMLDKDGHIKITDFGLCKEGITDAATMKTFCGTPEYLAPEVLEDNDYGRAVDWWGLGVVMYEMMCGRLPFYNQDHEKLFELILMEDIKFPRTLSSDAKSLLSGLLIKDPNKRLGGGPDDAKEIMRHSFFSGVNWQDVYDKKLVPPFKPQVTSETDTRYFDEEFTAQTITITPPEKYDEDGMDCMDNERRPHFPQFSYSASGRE
T1 sequence (Q13464 17-535 limits assumed): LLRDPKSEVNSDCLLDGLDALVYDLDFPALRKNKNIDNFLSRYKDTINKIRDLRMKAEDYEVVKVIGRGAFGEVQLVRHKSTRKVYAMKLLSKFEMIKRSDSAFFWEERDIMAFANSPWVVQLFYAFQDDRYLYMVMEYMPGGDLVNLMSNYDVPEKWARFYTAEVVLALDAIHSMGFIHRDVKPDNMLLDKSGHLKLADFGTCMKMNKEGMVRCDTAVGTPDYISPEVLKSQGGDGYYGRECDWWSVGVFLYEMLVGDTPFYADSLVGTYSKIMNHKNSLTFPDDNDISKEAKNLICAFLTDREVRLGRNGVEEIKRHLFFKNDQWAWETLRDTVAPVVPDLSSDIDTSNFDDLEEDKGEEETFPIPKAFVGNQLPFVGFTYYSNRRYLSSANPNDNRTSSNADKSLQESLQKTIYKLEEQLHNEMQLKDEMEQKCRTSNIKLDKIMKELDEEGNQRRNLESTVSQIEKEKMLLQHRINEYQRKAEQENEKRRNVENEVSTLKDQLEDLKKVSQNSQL
T2 sequence (P23443 1-421 T412E limits assumed): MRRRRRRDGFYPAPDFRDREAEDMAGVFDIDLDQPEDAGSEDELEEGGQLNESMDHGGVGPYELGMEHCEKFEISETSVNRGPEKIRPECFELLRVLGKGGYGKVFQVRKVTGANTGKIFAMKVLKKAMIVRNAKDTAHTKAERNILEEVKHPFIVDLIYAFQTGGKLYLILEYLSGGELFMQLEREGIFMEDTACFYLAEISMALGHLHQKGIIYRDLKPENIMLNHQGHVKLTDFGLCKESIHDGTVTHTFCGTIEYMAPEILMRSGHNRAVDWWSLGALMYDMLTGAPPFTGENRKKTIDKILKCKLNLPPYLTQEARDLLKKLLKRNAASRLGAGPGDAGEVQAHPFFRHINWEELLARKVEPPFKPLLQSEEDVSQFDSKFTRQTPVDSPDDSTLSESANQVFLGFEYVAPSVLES

| SMILES | Ki ([1]; Avg, 10 μM ATP) [nM] | Ki [2] [nM] | Ki [3] [nM] | Ki [4, 5] [nM] | Ki ([1]; average Ki) [nM] | Ki ([4]; average Ki, read-out: ROCK2 Ki) [nM] |
| --- | --- | --- | --- | --- | --- | --- |
| Fc1ccc(CN2CCC[C@H](Nc3ccc4[nH]ncc4c3)C2)cc1F [Compound 1.072, (S)-N-(1-(3,4-difluorobenzyl)piperidin-3-yl)-1H-indazol-5-amine] | 33.7 | 1130 | 4750 | 5.6 |  |  |
| Cc1ccc(CN2CCC[C@H](Nc3ccc4[nH]ncc4c3)C2)cc1 [Compound 1.078, (S)-N-(1-(4-methylbenzyl)piperidin-3-yl)-1H-indazol-5-amine] | 36.3 | 1680 | 3270 | 3.6 |  |  |
| NC(=O)Cn1ccc2ccc(CN3CCC[C@@H](Nc4ccc5[nH]ncc5c4)C3)cc21 [Compound 1.106, (R)-2-(6-((3-(1H-indazol-5-ylamino)piperidin-1-yl)methyl)-1H-indol-1-yl)acetamide] | 223 | 1330 | 3910 | 15.1 |  |  |
| c1ccc(CN2CCC[C@@H](Nc3ccc4[nH]ncc4c3)C2)cc1 [Compound 1.110, (R)-N-(1-benzylpiperidin-3-yl)-1H-indazol-5-amine] | 59 | 1300 | 463 | 11.2 |  |  |
| O=C(COc1cccc(CN2CCC[C@@H](Nc3ccc4[nH]ncc4c3)C2)c1)N1CCOCC1 [Compound 1.127, (R)-2-(3-((3-(1H-indazol-5-ylamino)piperidin-1-yl)methyl)phenoxy)-1-morpholinoethanone] | 96.6 | 2070 | 975 | 11.2 |  |  |
| Brc1ccc(CN2CCC[C@H](Nc3ccc4[nH]ncc4c3)C2)cc1 [Compound 1.142, (S)-N-(1-(4-bromobenzyl)piperidin-3-yl)-1H-indazoi-5-amine] | 104 | 2520 | 8270 | 12 |  |  |
| c1cc2cc(CN3CCC[C@@H](Nc4ccc5[nH]ncc5c4)C3)ccc2[nH]1 [Compound 1.143, (R)-N-(1-((1H-indol-5-yl)methyl)piperidin-3-yl)-1H-indazol-5-amine] | 49.7 | 538 | 707 | 12.6 |  |  |
| Oc1cccc(CN2CCC[C@@H](Nc3ccc4[nH]ncc4c3)C2)c1 [Compound 1.145, (R)-3-((3-(1H-indazol-5-ylamino)piperidin-1-yl)methyl)phenol] | 35 | 2300 | 1190 | 6.4 |  |  |
| Fc1ccc(CN2CCC[C@@H](Nc3ccc4[nH]ncc4c3)C2)cc1 [Compound 1.146, (R)-N-(1-(4-fluorobenzyl)piperidin-3-yl)-1H-indazol-5-amine] | 39.8 | 742 | 205 | 10.7 |  |  |
| CCc1ccc(CN2CCC[C@H](Nc3ccc4[nH]ncc4c3)C2)cc1 [Compound 1.154, (S)-N-(1-(4-ethylbenzyl)piperidin-3-yl)-1H-indazol-5-amine] | 52.7 | 1130 | 4950 | 6.6 |  |  |
| Cc1ccc(CN2CC[C@@H](Nc3cccc4cnccc34)C2)cc1OCC(=O)OC(C)(C)C [Compound 2.071, (R)-tert-butyl 2-(5-((3-(isoquinolin-5-ylamino)pyrrolidin-1-yl)methyl)-2-methylphenoxy)acetate] | 21.2 |  |  | 11.9 |  |  |
| OCCn1cc(CN2CC[C@@H](Nc3cccc4cnccc34)C2)c2ccccc21 [Compound 2.072, (R)-2-(3-((3-(isoquinolin-5-ylamino)pyrrolidin-1-yl)methyl)-1H-indol-1-yl)ethanol] | 7.5 |  |  | 4.4 | 7.5 | 4.4 |
| Cc1ccc(CN2CC[C@@H](Nc3cccc4cnccc34)C2)cc1OCC(=O)O [Compound 2.073, (R)-2-(5-((3-(isoquinolin-5-ylamino)pyrrolidin-1-yl)methyl)-2-methylphenoxy)acetic acid] | 12.7 |  |  | 4.2 | 12.7 | 4.2 |
| c1cc(N[C@@H]2CCN(Cc3nc4ccccc4[nH]3)C2)c2ccncc2c1 [Compound 2.074, (R)-N-(1-((1H-benzo[d]imidazol-2-yl)methyl)pyrrolidin-3-yl)isoquinolin-5-amine] | 133 |  |  | 36.4 |  |  |
| Cn1c(CN2CC[C@@H](Nc3cccc4cnccc34)C2)nc2ccccc21 [Compound 2.075, (R)-N-(1-((1-methyl-1H-benzo[d]imidazol-2-yl)methyl)pyrrolidin-3-yl)isoquinolin-5-amine] | 123 |  |  | 21.7 |  |  |
| Cc1ccc(CN2CC[C@@H](Nc3cccc4cnccc34)C2)cc1NS(C)(=O)=O [Compound 2.076] | 8 |  |  | 2.4 | 8 | 2.4 |
| Cc1c(CN2CC[C@@H](Nc3cccc4cnccc34)C2)cccc1NS(C)(=O)=O [Compound 2.078, (R)-N-(3-((3-(isoquinolin-5-ylamino)pyrrolidin-1-yl)methyl)-2-methylphenyl)methanesulfonamide] | 18.3 |  |  | 2.6 | 18.3 | 2.6 |

| SMILES | Ki ([1]; Avg, 10 μM ATP) [nM] | Ki [2] [nM] | Ki [3] [nM] | Ki [4, 5] [nM] | Ki ([1]; average Ki) [nM] | Ki ([4]; average Ki, read-out: ROCK2 Ki) [nM] |
| --- | --- | --- | --- | --- | --- | --- |
| Cc1ccc(CN2CC[C@@H](Nc3cccc4c[n+]([O-])ccc34)C2)cc1OCCO [Compound 2.080, (R)-5-(1-(3-(2-hydroxyethoxy)-4-methylbenzyl)pyrrolidin-3-ylamino)isoquinoline 2-oxide] | 214 |  |  | 126 |  |  |
| [O-][n+]1ccc2c(N[C@@H]3CCN(Cc4cccc(OCCO)c4)C3)cccc2c1 [Compound 2.081, (R)-5-(1-(3-(2-hydroxyethoxy)benzyl)pyrrolidin-3-ylamino)isoquinoline 2-oxide] | 1450 |  |  | 1110 |  |  |
| CSc1nccc(CN2CC[C@@H](Nc3cccc4cnccc34)C2)n1 [Compound 2.082, (R)-N-(1-((2-(methylthio)pyrimidin-4-yl)methyl)pyrrolidin-3-yl)isoquinolin-5-amine] | 132 |  |  | 9 | 132 | 9 |
| c1cc(N[C@@H]2CCN(Cc3ccncn3)C2)c2ccncc2c1 [Compound 2.083, (R)-N-(1-(pyrimidin-4-ylmethyl)pyrrolidin-3-yl)isoquinolin-5-amine] | 1880 |  |  | 858 |  |  |
| c1cc(N[C@@H]2CCN(Cc3cncnc3)C2)c2ccncc2c1 [Compound 2.084, (R)-N-(1-(pyrimidin-5-ylmethyl)pyrrolidin-3-yl)isoquinolin-5-amine] | 1170 |  |  | 350 |  |  |
| c1cnc(CN2CC[C@@H](Nc3cccc4cnccc34)C2)nc1 [Compound 2.085, (R)-N-(1-(pyrimidin-2-ylmethyl)pyrrolidin-3-yl)isoquinolin-5-amine] | 2390 |  |  | 812 |  |  |
| c1cc(N[C@@H]2CCN(Cc3cnccn3)C2)c2ccncc2c1 [Compound 2.086, (R)-N-(1-(pyrazin-2-ylmethyl)pyrrolidin-3-yl)isoquinolin-5-amine] | 1250 |  |  | 358 |  |  |
| NS(=O)(=O)c1ccc2nc(CN3CC[C@@H](Nc4cccc5cnccc45)C3)[nH]c2c1 [Compound 2.087, (R)-2-((3-(isoquinolin-5-ylamino)pyrrolidin-1-yl)methyl)-1H-benzo[d]imidazole-6-sulfonamide] | 896 |  |  | 59.3 |  |  |
| c1cc(N[C@@H]2CCN(Cc3ccsc3)C2)c2ccncc2c1 [Compound 2.088, (R)-N-(1-(thiophen-3-ylmethyl)pyrrolidin-3-yl)isoquinolin-5-amine] | 38.7 |  |  | 13.6 |  |  |
| O=[N+]([O-])c1cc(CN2CC[C@@H](Nc3cccc4cnccc34)C2)cs1 [Compound 2.089, (R)-N-(1-((5-nitrothiophen-3-yl)methyl)pyrrolidin-3-yl)isoquinolin-5-amine] | 102 |  |  | 32.9 |  |  |
| c1csc(CN2CC[C@@H](Nc3cccc4cnccc34)C2)c1 [Compound 2.090, (R)-N-(1-(thiophen-2-ylmethyl)pyrrolidin-3-yl)isoquinolin-5-amine] | 53.3 |  |  | 19.5 |  |  |
| Cc1nc(CN2CC[C@@H](Nc3cccc4cnccc34)C2)c(C)o1 [Compound 2.091, (R)-N-(1-((2,5-dimethyloxazol-4-yl)methyl)pyrrolidin-3-yl)isoquinolin-5-amine] | 776 |  |  | 237 |  |  |
| O=c1[nH]ccc2c(N[C@@H]3CCN(Cc4cccc(OCCO)c4)C3)cccc12 [Compound 2.092, (R)-5-(1-(3-(2-hydroxyethoxy)benzyl)pyrrolidin-3-ylamino)isoquinolin-1(2H)-one] | 1130 |  |  | 458 |  |  |
| Cc1ccc(CN2CC[C@@H](Nc3cccc4c(=O)[nH]ccc34)C2)cc1OCCO [Compound 2.093, (R)-5-(1-(3-(2-hydroxyethoxy)-4-methylbenzyl)pyrrolidin-3-ylamino)isoquinolin-1(2H)-one] | 576 |  |  | 128 |  |  |
| COc1c(CN2CC[C@@H](Nc3cccc4cnccc34)C2)cccc1NS(C)(=O)=O [Compound 2.096, (R)-N-(3-((3-(isoquinolin-5-ylamino)pyrrolidin-1-yl)methyl)-2-methoxyphenyl)methanesuifonamide] | 70.2 |  |  | 9.6 | 70.2 | 9.6 |
| COc1ccc(CN2CC[C@@H](Nc3cccc4cnccc34)C2)cc1NS(C)(=O)=O [Compound 2.098, (R)-N-(5-((3-(isoquinolin-5-ylamino)pyrrolidin-1-yl)methyl)-2-methoxyphenyl)methanesulfonamide] | 382 |  |  | 73.5 |  |  |
| Cc1ccc(CN2CC[C@@H](Nc3cccc4cnccc34)C2)cc1OCC(N)=O [Compound 2.099, (R)-2-(5-((3-(isoquinolin-5-ylamino)pyrrolidin-1-yl)methyl)-2-methylphenoxy)acetamide] | 15 |  |  | 3.8 | 15 | 3.8 |

— US20090325959A1 (priority 2008, published 2009)
